Results taken from article PMC5218480 (PLoS ONE, 2017).

Test system: MV-4-11 cells
Assay: Gene expression microarray analysis (Affymetrix PrimeView) and GSEA
Type: cell-based, human
Parameters: RFU PODN (11730768_x_at) / Fold change /veh PODN (11730768_x_at) / RFU LINC00158 (11744669_a_at) / Fold change /veh LINC00158 (11744669_a_at) / RFU DUSP10 (11751237_a_at) / Fold change /veh DUSP10 (11751237_a_at) / RFU ID3 (11757404_x_at) / Fold change /veh ID3 (11757404_x_at) / RFU PLEKHG5 (11737974_s_at) / Fold change /veh PLEKHG5 (11737974_s_at) / RFU LRRC4B (11730491_at) / Fold change /veh LRRC4B (11730491_at) / RFU GIMAP4 (11747438_a_at) / Fold change /veh GIMAP4 (11747438_a_at) / RFU KRT8 (11758183_x_at) / Fold change /veh KRT8 (11758183_x_at) / RFU CNN1 (11734310_a_at) / Fold change /veh CNN1 (11734310_a_at) / RFU VPS37D (11726825_at) / Fold change /veh VPS37D (11726825_at) / RFU C10orf10 (11716522_x_at) / Fold change /veh C10orf10 (11716522_x_at) / RFU KIR2DL2 /// KIR2DL4 /// KIR2DL5A /// KIR2DL5B /// KIR2DS1 /// KIR2DS2 /// KIR2DS3 /// KIR2DS4 /// KIR3DL3 /// KIR3DL3 /// KIR3DS1 (11738374_at) / Fold change /veh KIR2DL2 /// KIR2DL4 /// KIR2DL5A /// KIR2DL5B /// KIR2DS1 /// KIR2DS2 /// KIR2DS3 /// KIR2DS4 /// KIR3DL3 /// KIR3DL3 /// KIR3DS1 (11738374_at) / RFU C1QL1 (11718748_at) / Fold change /veh C1QL1 (11718748_at) / RFU TMPRSS4 (11747572_a_at) / Fold change /veh TMPRSS4 (11747572_a_at) / RFU HAMP (11756126_x_at) / Fold change /veh HAMP (11756126_x_at) / RFU RNFT2 (11725882_a_at) / Fold change /veh RNFT2 (11725882_a_at) / RFU NR4A2 (11747474_a_at) / Fold change /veh NR4A2 (11747474_a_at) / RFU ABCC12 (11746883_a_at) / Fold change /veh ABCC12 (11746883_a_at) / RFU TMEM136 (11760407_x_at) / Fold change /veh TMEM136 (11760407_x_at) / RFU CLDN22 /// WWC2 (11732394_at) / Fold change /veh CLDN22 /// WWC2 (11732394_at) / RFU HLA-DPB1 (11760878_x_at) / Fold change /veh HLA-DPB1 (11760878_x_at) / RFU SPINT1 (11716480_a_at) / Fold change /veh SPINT1 (11716480_a_at) / RFU GAP43 (11754022_s_at) / Fold change /veh GAP43 (11754022_s_at) / RFU A4GNT (11735810_at) / Fold change /veh A4GNT (11735810_at) / RFU PRB3 (11715151_x_at) / Fold change /veh PRB3 (11715151_x_at) / RFU TUBB4B (11761932_at) / Fold change /veh TUBB4B (11761932_at) / RFU CAPN14 (11732068_a_at) / Fold change /veh CAPN14 (11732068_a_at) / RFU TMCC2 (11721928_a_at) / Fold change /veh TMCC2 (11721928_a_at) / RFU IRGQ (11745062_a_at) / Fold change /veh IRGQ (11745062_a_at) / RFU FAM174B (11720279_a_at) / Fold change /veh FAM174B (11720279_a_at) / RFU TMPRSS4 (11748680_a_at) / Fold change /veh TMPRSS4 (11748680_a_at) / RFU FAM212B (11763350_a_at) / Fold change /veh FAM212B (11763350_a_at) / RFU PLEKHG5 (11743358_a_at) / Fold change /veh PLEKHG5 (11743358_a_at) / RFU ZSCAN30 (11745921_a_at) / Fold change /veh ZSCAN30 (11745921_a_at) / RFU CMKLR1 (11741424_a_at) / Fold change /veh CMKLR1 (11741424_a_at) / RFU LOC101060620 /// MAPK8IP1 (11723275_at) / Fold change /veh LOC101060620 /// MAPK8IP1 (11723275_at) / RFU SPTSSB (11747773_x_at) / Fold change /veh SPTSSB (11747773_x_at) / RFU PRSS12 (11739890_at) / Fold change /veh PRSS12 (11739890_at) / RFU BIN1 (11741810_x_at) / Fold change /veh BIN1 (11741810_x_at) / RFU WNT11 (11732464_a_at) / Fold change /veh WNT11 (11732464_a_at) / RFU C10orf10 (11716521_a_at) / Fold change /veh C10orf10 (11716521_a_at) / RFU C5orf56 (11738089_at) / Fold change /veh C5orf56 (11738089_at) / RFU CYB561 (11721691_x_at) / Fold change /veh CYB561 (11721691_x_at) / RFU ANKRD19P (11752326_a_at) / Fold change /veh ANKRD19P (11752326_a_at) / RFU OR2T12 /// OR2T33 /// OR2T8 (11738714_s_at) / Fold change /veh OR2T12 /// OR2T33 /// OR2T8 (11738714_s_at) / RFU VCAN (11748164_a_at) / Fold change /veh VCAN (11748164_a_at) / RFU JSRP1 (11732532_at) / Fold change /veh JSRP1 (11732532_at) / RFU KRTAP10-11 (11738290_x_at) / Fold change /veh KRTAP10-11 (11738290_x_at) / RFU MYO3A (11730013_a_at) / Fold change /veh MYO3A (11730013_a_at) / RFU EBF3 (11725865_a_at) / Fold change /veh EBF3 (11725865_a_at) / RFU CAMK2N1 (11719241_x_at) / Fold change /veh CAMK2N1 (11719241_x_at) / RFU C5orf56 (11738088_a_at) / Fold change /veh C5orf56 (11738088_a_at) / RFU OLFML3 (11715873_a_at) / Fold change /veh OLFML3 (11715873_a_at) / RFU LOC100653217 /// NTM (11731650_a_at) / Fold change /veh LOC100653217 /// NTM (11731650_a_at) / RFU MAPK11 (11762145_a_at) / Fold change /veh MAPK11 (11762145_a_at) / RFU FIZ1 (11724087_x_at) / Fold change /veh FIZ1 (11724087_x_at) / RFU OASL (11726364_x_at) / Fold change /veh OASL (11726364_x_at) / RFU SOX15 (11748057_x_at) / Fold change /veh SOX15 (11748057_x_at) / RFU CD79A (11719716_a_at) / Fold change /veh CD79A (11719716_a_at) / RFU HIST1H1D (11736915_at) / Fold change /veh HIST1H1D (11736915_at) / RFU CASKIN2 (11723855_a_at) / Fold change /veh CASKIN2 (11723855_a_at) / RFU LOC730098 (11760151_x_at) / Fold change /veh LOC730098 (11760151_x_at) / RFU OR4N2 (11742367_at) / Fold change /veh OR4N2 (11742367_at) / RFU PRRT2 (11749266_a_at) / Fold change /veh PRRT2 (11749266_a_at) / RFU SNX32 (11753110_a_at) / Fold change /veh SNX32 (11753110_a_at) / RFU CDHR5 (11726645_a_at) / Fold change /veh CDHR5 (11726645_a_at) / RFU RCAN1 (11760418_a_at) / Fold change /veh RCAN1 (11760418_a_at) / RFU FAM167A (11723789_a_at) / Fold change /veh FAM167A (11723789_a_at) / RFU FAM26E (11764081_at) / Fold change /veh FAM26E (11764081_at) / RFU ISYNA1 (11749810_s_at) / Fold change /veh ISYNA1 (11749810_s_at) / RFU ACY1 (11761880_at) / Fold change /veh ACY1 (11761880_at) / RFU 11764098_at / Fold change /veh 11764098_at / RFU SAMD14 (11745864_x_at) / Fold change /veh SAMD14 (11745864_x_at) / RFU NPB (11741838_a_at) / Fold change /veh NPB (11741838_a_at) / RFU TMPRSS6 (11731388_a_at) / Fold change /veh TMPRSS6 (11731388_a_at) / RFU KRTAP10-2 (11738614_at) / Fold change /veh KRTAP10-2 (11738614_at) / RFU ARHGAP8 /// PRR5-ARHGAP8 (11727945_x_at) / Fold change /veh ARHGAP8 /// PRR5-ARHGAP8 (11727945_x_at) / RFU KRTAP5-7 /// NADSYN1 (11734609_at) / Fold change /veh KRTAP5-7 /// NADSYN1 (11734609_at) / RFU RASL12 (11751679_a_at) / Fold change /veh RASL12 (11751679_a_at) / RFU CDKN2B (11736163_a_at) / Fold change /veh CDKN2B (11736163_a_at) / RFU PRF1 (11729649_at) / Fold change /veh PRF1 (11729649_at) / RFU, ZNF638 /// ZNF638-IT1 / Fold change vs veh, ZNF638 /// ZNF638-IT1 / RFU, PANK3 / Fold change vs veh, PANK3 / RFU, SH3YL1 / Fold change vs veh, SH3YL1 / RFU, ZEB2 / Fold change vs veh, ZEB2 / RFU, NRIP1 / Fold change vs veh, NRIP1 / RFU, PTTG1IP / Fold change vs veh, PTTG1IP / RFU, CAPN2 / Fold change vs veh, CAPN2 / RFU, MED14 / Fold change vs veh, MED14 / RFU, SNORA58 / Fold change vs veh, SNORA58 / RFU, C1orf63 / Fold change vs veh, C1orf63 / RFU, LRRFIP1 / Fold change vs veh, LRRFIP1 / RFU, NDUFAF7 / Fold change vs veh, NDUFAF7 / RFU, SLC12A2 / Fold change vs veh, SLC12A2 / RFU, IBTK / Fold change vs veh, IBTK / RFU, ESF1 / Fold change vs veh, ESF1 / Fold change vs veh, TMEM50B / RFU, TAOK1 / Fold change vs veh, TAOK1 / RFU, ACBD3 / Fold change vs veh, ACBD3 / RFU, TMA16 / Fold change vs veh, TMA16 / RFU, RWDD3 / Fold change vs veh, RWDD3 / RFU, BCAT1 / Fold change vs veh, BCAT1 / RFU, EDEM3 / Fold change vs veh, EDEM3 / RFU, TMEM33 / Fold change vs veh, TMEM33 / RFU, WDR75 / Fold change vs veh, WDR75 / RFU, AHCTF1 / Fold change vs veh, AHCTF1 / RFU, TFRC / Fold change vs veh, TFRC / RFU, ZDHHC17 / Fold change vs veh, ZDHHC17 / RFU, NOM1 / Fold change vs veh, NOM1 / RFU, ARL8B / Fold change vs veh, ARL8B / RFU, ZBTB11 / Fold change vs veh, ZBTB11 / RFU, TAMM41 / Fold change vs veh, TAMM41 / RFU, KIAA1704 /// LOC100996395 / Fold change vs veh, KIAA1704 /// LOC100996395 / RFU, ING1 / Fold change vs veh, ING1 / RFU, TRMT61B / Fold change vs veh, TRMT61B / RFU, FUBP3 / Fold change vs veh, FUBP3 / RFU, TP53 / Fold change vs veh, TP53 / RFU, TNKS2 / Fold change vs veh, TNKS2 / RFU, ZFP14 / Fold change vs veh, ZFP14 / RFU, ACTR2 / Fold change vs veh, ACTR2 / RFU, PPP3R1 / Fold change vs veh, PPP3R1 / RFU, PIK3R1 / Fold change vs veh, PIK3R1 / RFU, HNRNPA1 / Fold change vs veh, HNRNPA1 / RFU, RNF170 / Fold change vs veh, RNF170 / RFU, ZNF28 / Fold change vs veh, ZNF28 / RFU, RNGTT / Fold change vs veh, RNGTT / RFU, OGT / Fold change vs veh, OGT / RFU, BRD1 / Fold change vs veh, BRD1 / RFU, MARS / Fold change vs veh, MARS / RFU, ZNF655 / Fold change vs veh, ZNF655 / RFU, FAHD1 / Fold change vs veh, FAHD1 / RFU, BDP1 / Fold change vs veh, BDP1 / RFU, LRRCC1 / Fold change vs veh, LRRCC1 / RFU, ARID1A / Fold change vs veh, ARID1A / RFU, ZNF146 / Fold change vs veh, ZNF146 / RFU, ZNF330 / Fold change vs veh, ZNF330 / RFU, GPN3 / Fold change vs veh, GPN3 / RFU, C9orf123 / Fold change vs veh, C9orf123 / RFU, N4BP2L2 / Fold change vs veh, N4BP2L2 / RFU, ARFIP1 / Fold change vs veh, ARFIP1 / RFU, FAM179B / Fold change vs veh, FAM179B / RFU, BCL10 / Fold change vs veh, BCL10 / RFU, UHRF1BP1L / Fold change vs veh, UHRF1BP1L / RFU, BET1 / Fold change vs veh, BET1 / RFU, CNOT2 / Fold change vs veh, CNOT2 / RFU, ZNF268 / Fold change vs veh, ZNF268 / Fold change vs veh, ZNF507 / RFU, DGCR2 / Fold change vs veh, DGCR2 / RFU, WDSUB1 / Fold change vs veh, WDSUB1 / Fold change vs veh, HSP90B1 /// MIR3652 / RFU, ADSS / Fold change vs veh, ADSS / RFU, GK / Fold change vs veh, GK / RFU, ZNF148 / Fold change vs veh, ZNF148 / RFU, TAF9 / Fold change vs veh, TAF9 / RFU, SLC1A5 / Fold change vs veh, SLC1A5 / RFU, SLMO2 / Fold change vs veh, SLMO2 / RFU, ABCC4 / Fold change vs veh, ABCC4 / RFU, LOC101060439 /// RAP1B / Fold change vs veh, LOC101060439 /// RAP1B / RFU, RFX7 / Fold change vs veh, RFX7 / RFU, GTPBP10 / Fold change vs veh, GTPBP10 / RFU, CNEP1R1 / Fold change vs veh, CNEP1R1 / RFU, BIVM-ERCC5 /// ERCC5 / Fold change vs veh, BIVM-ERCC5 /// ERCC5 / RFU, ILF3 / Fold change vs veh, ILF3 / RFU 11762660_at / Fold change /veh 11762660_at / RFU VCAN (11757783_s_at) / Fold change /veh VCAN (11757783_s_at) / RFU DDX43 (11728927_at) / Fold change /veh DDX43 (11728927_at) / RFU KRT8 (11758188_x_at) / Fold change /veh KRT8 (11758188_x_at) / RFU NKD1 (11759106_at) / Fold change /veh NKD1 (11759106_at) / RFU SRD5A1 (11742802_a_at) / Fold change /veh SRD5A1 (11742802_a_at) / RFU TPSAB1 /// TPSB2 (11721975_s_at) / Fold change /veh TPSAB1 /// TPSB2 (11721975_s_at) / RFU GSTM3 (11746129_a_at) / Fold change /veh GSTM3 (11746129_a_at) / RFU IL23R (11737362_x_at) / Fold change /veh IL23R (11737362_x_at) / RFU TMEM51 (11727254_a_at) / Fold change /veh TMEM51 (11727254_a_at) / RFU PIWIL2 (11732686_x_at) / Fold change /veh PIWIL2 (11732686_x_at) / RFU ORM1 (11744905_x_at) / Fold change /veh ORM1 (11744905_x_at) / RFU CCDC152 (11743942_at) / Fold change /veh CCDC152 (11743942_at) / RFU ECM1 (11717891_a_at) / Fold change /veh ECM1 (11717891_a_at) / RFU IL23R (11748794_a_at) / Fold change /veh IL23R (11748794_a_at) / RFU TNFAIP8L3 (11732012_x_at) / Fold change /veh TNFAIP8L3 (11732012_x_at) / RFU MBOAT4 (11741988_at) / Fold change /veh MBOAT4 (11741988_at) / RFU 11764193_at / Fold change /veh 11764193_at / RFU TMEM53 (11763286_at) / Fold change /veh TMEM53 (11763286_at) / RFU MAGEB2 (11727129_at) / Fold change /veh MAGEB2 (11727129_at) / RFU TMEM200A (11744735_a_at) / Fold change /veh TMEM200A (11744735_a_at) / RFU CCDC152 (11751479_a_at) / Fold change /veh CCDC152 (11751479_a_at) / RFU FAM211A (11726209_a_at) / Fold change /veh FAM211A (11726209_a_at) / RFU RGS16 (11746705_a_at) / Fold change /veh RGS16 (11746705_a_at) / RFU VCAN (11755009_s_at) / Fold change /veh VCAN (11755009_s_at) / RFU RHOB (11743442_s_at) / Fold change /veh RHOB (11743442_s_at) / RFU RGS16 (11720943_a_at) / Fold change /veh RGS16 (11720943_a_at) / RFU RGS16 (11720944_at) / Fold change /veh RGS16 (11720944_at) / RFU, VPS4B / Fold change vs veh, VPS4B / RFU, CREB1 / Fold change vs veh, CREB1 / RFU, DNAJC13 / Fold change vs veh, DNAJC13 / RFU, GNAQ / Fold change vs veh, GNAQ / RFU, CDK5R1 / Fold change vs veh, CDK5R1 / RFU, ZRANB3 / Fold change vs veh, ZRANB3 / RFU, CUL4A / Fold change vs veh, CUL4A / RFU, CCNY / Fold change vs veh, CCNY / RFU, UFL1 / Fold change vs veh, UFL1 / RFU, COG3 / Fold change vs veh, COG3 / RFU, DIAPH2 / Fold change vs veh, DIAPH2 / RFU, SKA2 / Fold change vs veh, SKA2 / RFU, AFF3 / Fold change vs veh, AFF3 / RFU, LMF1 / Fold change vs veh, LMF1 / RFU, IPO11 / Fold change vs veh, IPO11 / RFU, DFFB / Fold change vs veh, DFFB / RFU, FOXP1 / Fold change vs veh, FOXP1 / RFU, CARD8 / Fold change vs veh, CARD8 / RFU, STRN3 / Fold change vs veh, STRN3 / RFU, ADK / Fold change vs veh, ADK / RFU, RASSF2 / Fold change vs veh, RASSF2 / RFU, WIPF1 / Fold change vs veh, WIPF1 / RFU, LARP1B / Fold change vs veh, LARP1B / RFU, RASA1 / Fold change vs veh, RASA1 / RFU, RB1 / Fold change vs veh, RB1 / RFU, PPFIA1 / Fold change vs veh, PPFIA1 / RFU, MAT2A / Fold change vs veh, MAT2A / RFU, CCT5 / Fold change vs veh, CCT5 / RFU, WDR92 / Fold change vs veh, WDR92 / RFU, CUX1 / Fold change vs veh, CUX1 / RFU, TTC7A / Fold change vs veh, TTC7A / RFU, TMEM135 / Fold change vs veh, TMEM135 / RFU, DEPTOR / Fold change vs veh, DEPTOR / RFU, CPM / Fold change vs veh, CPM / RFU, DNAJB6 / Fold change vs veh, DNAJB6 / RFU, CACNA2D3 / Fold change vs veh, CACNA2D3 / RFU, DTX4 / Fold change vs veh, DTX4 / RFU, TFCP2 / Fold change vs veh, TFCP2 / RFU, GMCL1 /// GMCL1P1 / Fold change vs veh, GMCL1 /// GMCL1P1 / RFU, AEBP2 / Fold change vs veh, AEBP2 / RFU, SNHG1 /// SNORD22 /// SNORD25 /// SNORD26 /// SNORD27 /// SNORD28 /// SNORD29 /// SNORD31 / Fold change vs veh, SNHG1 /// SNORD22 /// SNORD25 /// SNORD26 /// SNORD27 /// SNORD28 /// SNORD29 /// SNORD31 / Fold change (Aza/veh), C12orf56 (ProbeSet 11735607_a_at) / Fold change (ACY-1035/veh), C12orf56 (ProbeSet 11735607_a_at) / Fold change (Aza/veh), FGFR1OP (ProbeSet 11751329_s_at) / Fold change (ACY-1035/veh), FGFR1OP (ProbeSet 11751329_s_at) / Fold change (Aza/veh), VPS36 (ProbeSet 11739960_a_at) / Fold change (ACY-1035/veh), VPS36 (ProbeSet 11739960_a_at) / RFU SYPL1 (11715823_x_at) / Fold change /veh SYPL1 (11715823_x_at) / RFU IGFBP7 (11715501_s_at) / Fold change /veh IGFBP7 (11715501_s_at) / RFU REEP3 (11722064_at) / Fold change /veh REEP3 (11722064_at) / RFU IGLL1 (11728026_x_at) / Fold change /veh IGLL1 (11728026_x_at): dose or concentration left out as unconfirmed
Details: MV-4-11 cells, 48 hours

In the case of `Nc1ncn([C@@H]2O[C@H](CO)[C@@H](O)[C@H]2O)c(=O)n1` [azacitidine], the “Fold change /veh TMPRSS4 (11748680_a_at)” value is reported as 0.94.
